Test results reported in PubChem BioAssay AID330 (DTP/NCI, 2004).
“And” between values parts separate entries of the source, which are not always exact repeats. Equal values may be shown once. Inconclusive results and toxic doses are left out. How the source made its calls: active means survival T/C of 150% or more; inactive means T/C below 125% in these data.

Test system: P388 leukemia ip, CD2F1 mice, survival T/C
Experiment: NCI In Vivo Anticancer Drug Screen. Data for tumor model P388 Leukemia (intraperitoneal) in CD2F1 (CDF1) mice
Conditions: endpoint: median survival time, higher = longer survival
In short: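 Mice carrying the transplanted tumor received test compound or vehicle. Survival was recorded in each group, and the value is the treated-group measurement divided by that of the vehicle-treated control group.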

[1] = dose: 50.0 mg/kg/injection, schedule: Q01DX009 (ip), vehicle: saline with Tween-80
[2] = dose: 100.0 mg/kg/injection, schedule: Q01DX009 (ip), vehicle: saline with Tween-80
[3] = dose: 200.0 mg/kg/injection, schedule: Q01DX009 (ip), vehicle: saline with Tween-80
[4] = dose: 25.0 mg/kg/injection, schedule: Q01DX009 (ip), vehicle: distilled water + Tween-80
[5] = dose: 50.0 mg/kg/injection, schedule: Q01DX009 (ip), vehicle: distilled water + Tween-80
[6] = dose: 100.0 mg/kg/injection, schedule: Q01DX009 (ip), vehicle: distilled water + Tween-80
[7] = dose: 200.0 mg/kg/injection, schedule: Q01DX009 (ip), vehicle: distilled water + Tween-80
[8] = dose: 50.0 mg/kg/injection, schedule: Q01DX005 (ip), vehicle: saline with Tween-80

Measured: T/C

NC(Cc1ccc(OC(c2ccccc2)c2ccccc2)cc1)C(=O)O (configuration not stated)
inactive: dose: 12.5 mg/kg/injection, schedule: Q01DX009 (ip), vehicle: saline with Tween-80 116 % of control | dose: 25.0 mg/kg/injection, schedule: Q01DX009 (ip), vehicle: saline with Tween-80 98 % of control | [1] 88 % of control | [2] 95 % of control | [3] 97 % of control

CC(C)c1cccc(O)c1O
inactive: dose: 100.0 mg/kg/injection, schedule: Q01DX009 (ip), vehicle: saline 97 % of control

CC(=O)CC(C)(C)C(C#N)c1ccccc1 (configuration not stated)
inactive: dose: 100.0 mg/kg/injection, schedule: Q04DX003 (ip), vehicle: Klucel (hydroxypropylcellulose) (HPC) 99 % of control | dose: 200.0 mg/kg/injection, schedule: Q04DX003 (ip), vehicle: Klucel (hydroxypropylcellulose) (HPC) 115 % of control | dose: 400.0 mg/kg/injection, schedule: Q04DX003 (ip), vehicle: Klucel (hydroxypropylcellulose) (HPC) 98 % of control

COc1ccc2c(c1)CCC1C2CCC2(C)C1CCC2(O)CCN=[N+]=[N-] (configuration not stated)
inactive: [1] 104 % of control | [2] 101 % of control | [3] 101 % of control

CCCN(CCC)c1ncnc2[nH]ncc12
inactive: dose: 50.0 mg/kg/injection, schedule: Q01DX005 (ip), vehicle: saline 92 % of control | dose: 100.0 mg/kg/injection, schedule: Q01DX005 (ip), vehicle: saline 92 % of control

CSCc1csc(N)n1
inactive: dose: 12.5 mg/kg/injection, schedule: Q01DX009 (ip), vehicle: other 102 % of control | dose: 25.0 mg/kg/injection, schedule: Q01DX009 (ip), vehicle: other 96 % of control | dose: 50.0 mg/kg/injection, schedule: Q01DX009 (ip), vehicle: other 111 % of control | dose: 100.0 mg/kg/injection, schedule: Q01DX009 (ip), vehicle: other 111 % of control | dose: 200.0 mg/kg/injection, schedule: Q01DX009 (ip), vehicle: other 100 % of control

COC(=O)C(Br)CCCC(Br)C(=O)OC (configuration not stated)
inactive: [4] 97 % of control | [5] 106 % of control | [6] 103 % of control | [7] 104 % of control

CS(=O)(=O)OCCCCOS(C)(=O)=O
inactive: dose: 3.75 mg/kg/injection, schedule: Q01DX009 (ip), vehicle: saline with Tween-80 90 % of control | dose: 3.75 mg/kg/injection, schedule: Q03HX008 (ip), vehicle: saline with Tween-80 104 % of control | dose: 3.75 mg/kg/injection, schedule: Q03HX016 (ip), vehicle: saline with Tween-80 100 % of control | dose: 3.75 mg/kg/injection, schedule: Q03HX024 (ip), vehicle: saline with Tween-80 100 % of control | dose: 7.5 mg/kg/injection, schedule: Q03HX008 (ip), vehicle: saline with Tween-80 109 % of control | dose: 7.5 mg/kg/injection, schedule: Q03HX016 (ip), vehicle: saline with Tween-80 100 % of control | dose: 7.5 mg/kg/injection, schedule: Q03HX024 (ip), vehicle: saline with Tween-80 100 % of control | dose: 15.0 mg/kg/injection, schedule: Q01DX009 (ip), vehicle: saline with Tween-80 90 % of control | dose: 15.0 mg/kg/injection, schedule: Q01DX009 (oral), vehicle: saline with Tween-80 104 % of control | dose: 15.0 mg/kg/injection, schedule: Q03HX008 (ip), vehicle: saline with Tween-80 109 % of control | dose: 15.0 mg/kg/injection, schedule: Q03HX016 (ip), vehicle: saline with Tween-80 109 % of control | dose: 15.0 mg/kg/injection, schedule: Q03HX024 (ip), vehicle: saline with Tween-80 113 % of control | dose: 25.0 mg/kg/injection, schedule: Q01DX005 (ip), vehicle: saline with Tween-80 108 % of control | dose: 30.0 mg/kg/injection, schedule: Q01DX001 (ip), vehicle: saline with Tween-80 110 % of control | dose: 30.0 mg/kg/injection, schedule: Q01DX009 (ip), vehicle: saline with Tween-80 100 % of control | dose: 30.0 mg/kg/injection, schedule: Q01DX009 (oral), vehicle: saline with Tween-80 104 % of control | dose: 30.0 mg/kg/injection, schedule: Q03HX008 (ip), vehicle: saline with Tween-80 109 % of control | dose: 30.0 mg/kg/injection, schedule: Q03HX016 (ip), vehicle: saline with Tween-80 100 % of control | dose: 30.0 mg/kg/injection, schedule: Q04DX003 (ip), vehicle: saline with Tween-80 90 % of control | dose: 30.0 mg/kg/injection, schedule: Q08DX002 (ip), vehicle: saline with Tween-80 105 % of control | [8] 113 % of control and 93 % of control | dose: 60.0 mg/kg/injection, schedule: Q01DX001 (ip), vehicle: saline with Tween-80 110 % of control | dose: 60.0 mg/kg/injection, schedule: Q01DX001 (oral), vehicle: saline with Tween-80 100 % of control | dose: 60.0 mg/kg/injection, schedule: Q08DX002 (ip), vehicle: saline with Tween-80 100 % of control | dose: 240.0 mg/kg/injection, schedule: Q08DX002 (ip), vehicle: saline with Tween-80 100 % of control

CC1C(=O)OC(C(O)C(C)(O)C2C(O)CC3C4CC5OC56C(O)C=CC(=O)C6(C)C4CCC32C)C1C (configuration not stated)
inactive: dose: 1.25 mg/kg/injection, schedule: Q01DX009 (ip), vehicle: Klucel (hydroxypropylcellulose) (HPC) 108 % of control | dose: 2.5 mg/kg/injection, schedule: Q01DX009 (ip), vehicle: Klucel (hydroxypropylcellulose) (HPC) 103 % of control | dose: 5.0 mg/kg/injection, schedule: Q01DX009 (ip), vehicle: Klucel (hydroxypropylcellulose) (HPC) 105 % of control | dose: 10.0 mg/kg/injection, schedule: Q01DX009 (ip), vehicle: Klucel (hydroxypropylcellulose) (HPC) 108 % of control

COc1ccccc1/C(C)=N/O
inactive: dose: 60.0 mg/kg/injection, schedule: Q01DX005 (ip), vehicle: saline with Tween-80 100 % of control | dose: 120.0 mg/kg/injection, schedule: Q01DX005 (ip), vehicle: saline with Tween-80 95 % of control | dose: 240.0 mg/kg/injection, schedule: Q01DX005 (ip), vehicle: saline with Tween-80 103 % of control

C=CCC1CCSC1=O (configuration not stated)
inactive: dose: 25.0 mg/kg/injection, schedule: Q04DX003 (ip), vehicle: saline with Tween-80 109 % of control

NC(=S)n1nc(-c2ccccc2)c(N=Nc2ccc(Cl)cc2Cl)c1-c1ccccc1
inactive: [8] 94 % of control | dose: 100.0 mg/kg/injection, schedule: Q01DX005 (ip), vehicle: saline with Tween-80 88 % of control | dose: 200.0 mg/kg/injection, schedule: Q01DX005 (ip), vehicle: saline with Tween-80 96 % of control

CCCC(NC(=O)C(C)NC(=O)OCc1ccccc1)C(=O)O (configuration not stated)
inactive: dose: 50.0 mg/kg/injection, schedule: Q01DX005 (ip), vehicle: Klucel (hydroxypropylcellulose) (HPC) 98 % of control | dose: 100.0 mg/kg/injection, schedule: Q01DX005 (ip), vehicle: Klucel (hydroxypropylcellulose) (HPC) 96 % of control | dose: 200.0 mg/kg/injection, schedule: Q01DX005 (ip), vehicle: Klucel (hydroxypropylcellulose) (HPC) 96 % of control

CN(C)c1ccc(P(=O)(O)O)c(Cl)c1
inactive: dose: 100.0 mg/kg/injection, schedule: Q01DX001 (ip), vehicle: Klucel (hydroxypropylcellulose) (HPC) 99 % of control | dose: 200.0 mg/kg/injection, schedule: Q01DX001 (ip), vehicle: Klucel (hydroxypropylcellulose) (HPC) 96 % of control | dose: 400.0 mg/kg/injection, schedule: Q01DX001 (ip), vehicle: Klucel (hydroxypropylcellulose) (HPC) 96 % of control

CCOC(=O)c1c(C)n(O)c2ccc(Cl)cc2c1=O
inactive: dose: 50.0 mg/kg/injection, schedule: Q01DX009 (ip), vehicle: Klucel (hydroxypropylcellulose) (HPC) 100 % of control | dose: 100.0 mg/kg/injection, schedule: Q01DX009 (ip), vehicle: Klucel (hydroxypropylcellulose) (HPC) 102 % of control | dose: 200.0 mg/kg/injection, schedule: Q01DX009 (ip), vehicle: Klucel (hydroxypropylcellulose) (HPC) 104 % of control

CCOc1cccc(/C=C2/C(=O)N(Cc3ccco3)SC2=S)c1O
inactive: dose: 3.12 mg/kg/injection, schedule: Q01DX009 (ip), vehicle: Klucel (hydroxypropylcellulose) (HPC) 93 % of control | dose: 6.25 mg/kg/injection, schedule: Q01DX009 (ip), vehicle: Klucel (hydroxypropylcellulose) (HPC) 93 % of control | dose: 12.5 mg/kg/injection, schedule: Q01DX009 (ip), vehicle: Klucel (hydroxypropylcellulose) (HPC) 93 % of control and 94 % of control | dose: 25.0 mg/kg/injection, schedule: Q01DX009 (ip), vehicle: Klucel (hydroxypropylcellulose) (HPC) 98 % of control

COc1ccc2ccc(CCC(=O)O)cc2c1
inactive: dose: 12.5 mg/kg/injection, schedule: Q01DX009 (ip), vehicle: distilled water + Tween-80 100 % of control | [4] 100 % of control | [5] 94 % of control | [6] 99 % of control | [7] 108 % of control
